Test results published in US11590129B2, “Combination therapy with an antitumor alkaloid” (PHARMA MAR, S.A., priority 2010, dated 2023).

Legend:
[1] = test system: HT-29 human colon adenocarcinoma cell line; assay: cells; details: Homo sapiens, HT-29, 72 h
Method in brief: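 HT-29 cells (5,000/well) were attached for 24 h, then exposed to vehicle or compounds for 72 h. Viability was read by MTT reduction, with 8 h MTT at 37° C and formazan dissolved in DMSO. Values are % of control cell growth.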

[2] = test system: IGROV-1 human ovarian adenocarcinoma cell line; assay: cells; details: Homo sapiens, IGROV-1, 72 h
[3] = test system: HepG2 human hepatocellular liver carcinoma cell line; assay: MTT cytotoxicity assay in HepG2 cells: IC50 of single agents and combinations with PM01183; type: cell-based; details: Homo sapiens, HepG2, 72 h
[4] = test system: SK-MEL-2 human melanoma cell line; assay: cells; details: Homo sapiens, SK-MEL-2, 72 h
Method in brief: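 SK-MEL-2 melanoma cells (5,000/well) grown 24 h drug-free, then exposed 72 h to vehicle or test compounds. Viability by MTT reduction (8 h, 37 °C), formazan dissolved in DMSO; results expressed as percentage of control cell growth.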

HT1080 tumors = assay: Human fibrosarcoma (HT1080) orthotopically implanted in athymic nude mice, total diameter (tumor+leg) % T/C; type: in vivo
Description: Female athymic nude mice (Harlan Laboratories Models, S.L. (Barcelona, Spain) were utilized for all experiments. Animals were housed in individually ventilated cages, up to ten per cage in a 12-hour light-dark cycle at 21-23° C. and 40-60% humidity. The mice were allowed free access to irradiated standard rodent diet and sterilized water. Animals were acclimated for at least 5 days prior to tumor implantation with a tumor cell suspension.
HT1080 cells were grown at 37° C. with 5% CO2 in Minimum Essential Medium Eagle (MEME). Each animal was orthotopically implanted into gastroecnemius muscle by an intramuscular injection using 26G needle and a 1 cc syringe, with 5×10^6 HT1080 cells, from in vitro passage 9, suspended in serum free medium, without antibiotics.
Total diameter (tumor+leg) measurements were determined by using digital caliper (Fowler Sylvac, S235PAT). This total diameter and animal body weights were measured 2-3 times per week starting from the first day of treatment.
Treatment tolerability was assessed by monitoring body weight evolution, clinical signs as well as evidences of local damage in the injection site.
PM01183 was provided in the form of vials of lyophilized PM01183 cake which was reconstituted with water for infusion to a concentration of 0.2 mg/mL. The PM01183 stock solution was further diluted in 5% glucose solution for injection to the dosing formulation concentrations. Dacarbazine was provided in the form of a solution prepared by diluting the product with 5% glucose solution for injection to the target final concentration.
Dose level groups were administered either as single agents or in combination.
Comparison of the median total diameter (tumor+leg) in the treatment groups (T) to the median total diameter (tumor+leg) in the control group (T/C×100%) was used for evaluation of the antitumor efficacy.

[5] = test system: A673 human rhabdomyosarcoma cell line; assay: cells; details: Homo sapiens, A673, 72 h
Method in brief: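 A673 cells seeded at 5,000 per well, grown 24 h drug-free, then exposed to compounds for 72 h. Viability by MTT reduction (8 h, 37 °C), formazan dissolved in DMSO. Results expressed as percentage of control cell growth.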

[6] = test system: PANC-1 human pancreatic carcinoma cell line; assay: cells; details: Homo sapiens, PANC-1, 72 h
Method in brief: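 Cells seeded at 5,000/well, left 24 h drug-free, then exposed to test compounds for 72 h. Viability read by MTT reduction (MTT added for 8 h at 37° C, formazan dissolved in DMSO).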

[7] = PM01183 0.135 mg/kg iv days 0,7

Question: For `COc1ccc2[nH]c3c(c2c1)CCN[C@]31CS[C@@H]2c3c(OC(C)=O)c(C)c4c(c3[C@H](COC1=O)N1[C@@H]2[C@H]2c3c(cc(C)c(OC)c3O)C[C@@H]([C@@H]1O)N2C)OCO4` [PM01183], which IC50 [1] is on record?
Answer: 3.7 nM

Question: What about the IC50 [2] of the same compound?
Answer: 3.2 nM

Question: What about the IC50 [3] of the same compound?
Answer: 2.5 nM

Question: And the IC50 [4]?
Answer: 2 nM

Question: What about the “% T/C on day 0” value (HT1080 tumors; PM01183 0.045 mg/kg) of the same compound?
Answer: 100%

Question: And the “% T/C on day 2” value (HT1080 tumors; PM01183 0.045 mg/kg)?
Answer: 77.8%

Question: What about the “% T/C on day 4” value (HT1080 tumors; PM01183 0.045 mg/kg) of the same compound?
Answer: 74.3%

Question: What about the “% T/C on day 7” value (HT1080 tumors; PM01183 0.045 mg/kg) of the same compound?
Answer: 94.2%

Question: What about the “% T/C on day 9” value (HT1080 tumors; PM01183 0.045 mg/kg) of the same compound?
Answer: 80.0%

Question: What about the “% T/C on day 11” value (HT1080 tumors; PM01183 0.045 mg/kg) of the same compound?
Answer: 74.0%

Question: And the “% T/C on day 14” value (HT1080 tumors; PM01183 0.045 mg/kg)?
Answer: 80.5%

Question: And the “% T/C on day 16” value (HT1080 tumors; PM01183 0.045 mg/kg)?
Answer: 91.1%

Question: What about the “% T/C on day 0” value (HT1080 tumors; PM01183 0.09 mg/kg) of the same compound?
Answer: 100%

Question: And the “% T/C on day 2” value (HT1080 tumors; PM01183 0.09 mg/kg)?
Answer: 66.7%

Question: What about the “% T/C on day 4” value (HT1080 tumors; PM01183 0.09 mg/kg) of the same compound?
Answer: 57.1%

Question: What about the “% T/C on day 7” value (HT1080 tumors; PM01183 0.09 mg/kg) of the same compound?
Answer: 65.4%

Question: What about the “% T/C on day 9” value (HT1080 tumors; PM01183 0.09 mg/kg) of the same compound?
Answer: 48.0%

Question: What about the “% T/C on day 11” value (HT1080 tumors; PM01183 0.09 mg/kg) of the same compound?
Answer: 42.7%

Question: And the “% T/C on day 14” value (HT1080 tumors; PM01183 0.09 mg/kg)?
Answer: 45.8%

Question: And the “% T/C on day 16” value (HT1080 tumors; PM01183 0.09 mg/kg)?
Answer: 56.4%

Question: What about the “% T/C (median total diameter, tumor+leg) on day 9” value (HT1080 tumors; [7]) of the same compound?
Answer: 36.0%

Question: And the “% T/C (median total diameter, tumor+leg) on day 11” value (HT1080 tumors; [7])?
Answer: 30.2%

Question: What about the “% T/C (median total diameter, tumor+leg) on day 14” value (HT1080 tumors; [7]) of the same compound?
Answer: 33.0%

Question: What about the “% T/C (median total diameter, tumor+leg) on day 16” value (HT1080 tumors; [7]) of the same compound?
Answer: 41.9%

Question: And the “% T/C on day 0” value (HT1080 tumors; PM01183 0.135 mg/kg)?
Answer: 100%

Question: And the “% T/C on day 2” value (HT1080 tumors; PM01183 0.135 mg/kg)?
Answer: 63.0%

Question: What about the “% T/C on day 4” value (HT1080 tumors; PM01183 0.135 mg/kg) of the same compound?
Answer: 62.9%

Question: And the “% T/C on day 7” value (HT1080 tumors; PM01183 0.135 mg/kg)?
Answer: 48.1%

Question: And the “% T/C on day 9” value (HT1080 tumors; PM01183 0.135 mg/kg)?
Answer: 36.0%

Question: What about the “% T/C on day 11” value (HT1080 tumors; PM01183 0.135 mg/kg) of the same compound?
Answer: 30.2%

Question: And the “% T/C on day 14” value (HT1080 tumors; PM01183 0.135 mg/kg)?
Answer: 33.0%

Question: What about the “% T/C on day 16” value (HT1080 tumors; PM01183 0.135 mg/kg) of the same compound?
Answer: 41.9%

Question: And the “% T/C (median total diameter, tumor+leg) on day 9” value (HT1080 tumors; PM01183 0.18 mg/kg iv days 0,7)?
Answer: 26.7%

Question: And the “% T/C (median total diameter, tumor+leg) on day 11” value (HT1080 tumors; PM01183 0.18 mg/kg iv days 0,7)?
Answer: 11.5%

Question: And the “% T/C (median total diameter, tumor+leg) on day 14” value (HT1080 tumors; PM01183 0.18 mg/kg iv days 0,7)?
Answer: 21.2%

Question: What about the “% T/C (median total diameter, tumor+leg) on day 16” value (HT1080 tumors; PM01183 0.18 mg/kg iv days 0,7) of the same compound?
Answer: 30.6%

Question: And the “% T/C on day 0” value (HT1080 tumors; PM01183 0.18 mg/kg)?
Answer: 100%

Question: And the “% T/C on day 2” value (HT1080 tumors; PM01183 0.18 mg/kg)?
Answer: 59.3%

Question: And the “% T/C on day 4” value (HT1080 tumors; PM01183 0.18 mg/kg)?
Answer: 40.0%

Question: What about the “% T/C on day 7” value (HT1080 tumors; PM01183 0.18 mg/kg) of the same compound?
Answer: 26.9%

Question: What about the “% T/C on day 9” value (HT1080 tumors; PM01183 0.18 mg/kg) of the same compound?
Answer: 26.7%

Question: And the “% T/C on day 11” value (HT1080 tumors; PM01183 0.18 mg/kg)?
Answer: 11.5%

Question: What about the “% T/C on day 14” value (HT1080 tumors; PM01183 0.18 mg/kg) of the same compound?
Answer: 21.2%

Question: And the “% T/C on day 16” value (HT1080 tumors; PM01183 0.18 mg/kg)?
Answer: 30.6%

Question: And the IC50 [5]?
Answer: 2.2 nM

Question: What about the IC50 [6] of the same compound?
Answer: 2.8 nM
